# Measured values from BindingDB's records for doi:10.1016/j.bmc.2007.01.046 (University of Tokyo, 2007).
# Target: T1, Bile acid receptor (Homo sapiens, UniProt Q96RI1)
# T1 sequence (Q96RI1 whole entry): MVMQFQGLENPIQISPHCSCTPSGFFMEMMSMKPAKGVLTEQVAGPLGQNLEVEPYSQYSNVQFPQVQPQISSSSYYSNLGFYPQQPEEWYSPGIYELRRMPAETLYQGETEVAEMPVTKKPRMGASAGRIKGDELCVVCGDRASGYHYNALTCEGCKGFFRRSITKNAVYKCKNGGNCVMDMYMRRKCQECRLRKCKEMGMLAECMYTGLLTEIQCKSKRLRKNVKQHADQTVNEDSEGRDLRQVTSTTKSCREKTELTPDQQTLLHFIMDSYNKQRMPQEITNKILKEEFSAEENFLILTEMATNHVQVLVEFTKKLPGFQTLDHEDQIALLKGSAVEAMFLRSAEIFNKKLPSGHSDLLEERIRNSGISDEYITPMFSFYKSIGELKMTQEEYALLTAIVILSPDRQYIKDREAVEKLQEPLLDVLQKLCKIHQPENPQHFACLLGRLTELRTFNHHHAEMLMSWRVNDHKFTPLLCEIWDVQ
# Assay: Cotransfection Assay
# Conditions: pH 7.2; 37 °C
row,SMILES,EC50 [µM]
1,"O=C(O)c1cccc(/C=C/c2ccc(OCc3c(-c4c(Cl)cccc4Cl)noc3-c3ccc(-c4ccccc4)cc3)cc2Cl)c1 [3-[(E)-2-(2-chloro-4-{[3-(2,6-dichlorophenyl)-5-(4-phenylphenyl)-1,2-oxazol-4-yl]methoxy}phenyl)ethenyl]benzoic acid]",33.9
2,"O=C(O)c1cccc(/C=C/c2ccc(OCc3c(-c4c(Cl)cccc4Cl)noc3-c3ccc4ccccc4c3)cc2Cl)c1 [3-[(E)-2-(2-chloro-4-{[3-(2,6-dichlorophenyl)-5-(naphthalen-2-yl)-1,2-oxazol-4-yl]methoxy}phenyl)ethenyl]benzoic acid]",22.2
3,"O=C(O)c1cccc(/C=C/c2ccc(OCc3c(-c4c(Cl)cccc4Cl)noc3-c3ccccc3)cc2Cl)c1 [3-[(E)-2-(2-chloro-4-{[3-(2,6-dichlorophenyl)-5-phenyl-1,2-oxazol-4-yl]methoxy}phenyl)ethenyl]benzoic acid]",15.8

# These reach a lower EC50. Values come first.
row,EC50 [µM],SMILES
1,3.7,"O=C(O)c1cccc(NC(=O)c2ccc(OCc3c(-c4c(Cl)cccc4Cl)noc3-c3ccc(-c4ccccc4)cc3)cc2Cl)c1 [3-[(2-chloro-4-{[3-(2,6-dichlorophenyl)-5-(4-phenylphenyl)-1,2-oxazol-4-yl]methoxy}benzene)amido]benzoic acid]"
2,4,"O=C(O)c1cccc(NC(=O)c2ccc(OCc3c(-c4c(Cl)cccc4Cl)noc3-c3ccc4ccccc4c3)cc2Cl)c1 [3-[(2-chloro-4-{[3-(2,6-dichlorophenyl)-5-(naphthalen-2-yl)-1,2-oxazol-4-yl]methoxy}benzene)amido]benzoic acid]"
